pIC50: −log10 of the molar value.
These compounds were tested against ASK1 (Apoptosis Signal-Regulating Kinase 1) (Homo sapiens (Human), UniProt Q99683) (assay: ASK1 (Apoptosis Signal-Regulating Kinase 1) TR-FRET Kinase Assay (Biochemical IC50)). Settings: TR-FRET, biotin-MBP substrate, 20 min pre-incubation, ATP added as 300 μM solution.
Chain of ASK1 (Apoptosis Signal-Regulating Kinase 1) (Q99683 649-946): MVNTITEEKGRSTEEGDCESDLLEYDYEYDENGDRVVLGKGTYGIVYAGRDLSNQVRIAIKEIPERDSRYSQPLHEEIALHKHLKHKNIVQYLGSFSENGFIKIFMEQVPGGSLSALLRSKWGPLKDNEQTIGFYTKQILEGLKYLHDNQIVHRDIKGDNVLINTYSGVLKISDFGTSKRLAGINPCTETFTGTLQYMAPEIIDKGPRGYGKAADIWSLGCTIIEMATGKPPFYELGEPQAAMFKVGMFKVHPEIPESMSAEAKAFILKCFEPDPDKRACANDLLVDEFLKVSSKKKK
O=C(Nc1cccc(-c2nncn2C2CC2)c1)c1cc(-c2ccc(S(=O)(=O)NC3CC3)cc2)ccn1 [Example 96, N-(3-(4-cyclopropyl-4H-1,2,4-triazol-3-yl)phenyl)-4-(4-(N-cyclopropylsulfamoyl)phenyl)picolinamide] was tested, and the pIC50 was 7.89.
COc1ccc2ncc(-c3ccnc(C(=O)Nc4cccc(-c5nncn5C5CC5)c4)c3)cc2c1 [Example 251, N-(3-(4-cyclopropyl-4H-1,2,4-triazol-3-yl)phenyl)-4-(6-methoxyquinolin-3-yl)picolinamide] showed a pIC50 of 8.15.
For Cc1ncccc1-c1ccnc(C(=O)Nc2cccc(-c3nncn3C3CC3)c2)c1 [Example 74, N-(3-(4-cyclopropyl-4H-1,2,4-triazol-3-yl)phenyl)-2-methyl-3,4′-bipyridine-2′-carboxamide], the pIC50 was 7.10.
With O=C(Nc1cccc(-c2nncn2C2CC2)c1)c1cc(-c2cncc(F)c2)ccn1 [Example 60, N-(3-(4-cyclopropyl-4H-1,2,4-triazol-3-yl)phenyl)-5-fluoro-3,4′-bipyridine-2′-carboxamide] the pIC50 was 7.64.
With O=C(Nc1cccc(-c2nncn2C2CC2)n1)c1cccc(-n2cc(C3CC3)nn2)c1 [Example 269, 3-(4-cyclopropyl-1H-1,2,3-triazol-1-yl)-N-(6-(4-cyclopropyl-4H-1,2,4-triazol-3-yl)pyridin-2-yl)benzamide] the pIC50 was 7.64.
For O=C(Nc1cccc(-c2nncn2C2CC2)c1)c1cc(-c2nc(C3CC3)no2)ccn1 [Example 254, 4-(3-cyclopropyl-1,2,4-oxadiazol-5-yl)-N-(3-(4-cyclopropyl-4H-1,2,4-triazol-3-yl)phenyl)picolinamide], the pIC50 was 5.90.
O=C(Nc1cccc(-c2nncn2C2CC2)n1)c1cc(F)cc(-n2cnc(C3CC3)c2)c1 [Example 205, 3-(4-cyclopropyl-1H-imidazol-1-yl)-N-(6-(4-cyclopropyl-4H-1,2,4-triazol-3-yl)pyridin-2-yl)-5-fluorobenzamide] was tested, and the pIC50 was 8.05.
Compound O=C(Nc1cccc(-c2nncn2C2CC2)c1)c1cc(-n2ccnc2)ccn1 [Example 27, N-(3-(4-cyclopropyl-4H-1,2,4-triazol-3-yl)phenyl)-4-(1H-imidazol-1-yl)picolinamide] has a pIC50 of 7.96.
With Cc1c(C(=O)Nc2cccc(-c3nncn3C3CC3)n2)cccc1-n1cnc(C2CC2)c1 [Example 196, 3-(4-cyclopropyl-1H-imidazol-1-yl)-N-(6-(4-cyclopropyl-4H-1,2,4-triazol-3-yl)pyridin-2-yl)-2-methylbenzamide] the pIC50 was 5.90.
For O=C(Nc1cccc(-c2nncn2C2CC2)n1)c1cc(-n2cnc(C3CC3)n2)ccn1 [Example 201, 4-(3-cyclopropyl-1H-1,2,4-triazol-1-yl)-N-(6-(4-cyclopropyl-4H-1,2,4-triazol-3-yl)pyridin-2-yl)picolinamide], the pIC50 was 7.85.
C[C@H](n1cnnc1-c1cccc(NC(=O)c2cc(-n3cnc(C4CC4)c3)ccn2)c1)C(F)(F)F [Example 189, (S)-4-(4-cyclopropyl-1H-imidazol-1-yl)-N-(3-(4-(1,1,1-trifluoropropan-2-yl)-4H-1,2,4-triazol-3-yl)phenyl)picolinamide] was tested, and the pIC50 was 8.05.
With C[C@H](n1cnnc1-c1cccc(NC(=O)c2cc(-c3ccc(C4CC4)nc3)ccn2)c1)C(F)(F)F [Example 223, (S)-6-cyclopropyl-N-(3-(4-(1,1,1-trifluoropropan-2-yl)-4H-1,2,4-triazol-3-yl)phenyl)-3,4′-bipyridine-2′-carboxamide] the pIC50 was 7.35.
Nc1ncc(-c2ccnc(C(=O)Nc3cccc(-c4nncn4C4CC4)c3)c2)cn1 [Example 25, 4-(2-aminopyrimidin-5-yl)-N-(3-(4-cyclopropyl-4H-1,2,4-triazol-3-yl)phenyl)picolinamide] gave a pIC50 of 7.89.
O=C(Nc1cccc(-c2nncn2C2CC2)c1)c1cc(-n2cnc(C(F)(F)F)c2)ccn1 [Example 44, N-(3-(4-cyclopropyl-4H-1,2,4-triazol-3-yl)phenyl)-4-(4-(trifluoromethyl)-1H-imidazol-1-yl)picolinamide] showed a pIC50 of 7.57.
